Test results: patent US5583000A, “Protease-binding compounds and methods of use” (priority 1993, dated 1996)
Values after ≈ are worked out from the molar mass of the structure shown. Values joined by “and” are separate entries in the source; they are usually repeats but may differ in a detail not shown here. Identical values can stand only once. Like-named read-outs stand apart in the source and are kept apart here. Square brackets hold non-standard residues; d marks the D form. Ends that are not written are not given here. Peptide text beside a SMILES is read from it. * marks the point of attachment. Sta = CC(C)C[C@H](N)[C@@H](O)CC(=O)O; Isovaleryl = CC(C)CC(=O)*

Legend:
HIV-1 PR Q7K = HIV-1 PR Q7K (Human immunodeficiency virus type 1 group M subtype B, UniProt P03369, Q497K); type: biochemical
in vitro [1] = experiment: in vitro
Description: Cytotoxicity. The MTT assay was performed as follows:
The cells were seeded in 96-well plates and grown overnight to near 50% confluency. A serial dilution (1 to 500 μM) of each compound in culture media was prepared and 250 μL/well was added in duplicate. The cells were allowed to grow for various periods of time (6, 24, 48 hours) and any precipitation of compounds in the wells was noted. The assay was performed by removing 200 μL of the culture media and adding 25 μL of MTT solution (2 mg/mL in phosphate buffered saline (PBS)). This was incubated for 4 hours at 37° C. and live cells began to turn purple while the solution remained yellow. To quench the reaction and solubilize the reaction product, 160 μL of acidified isopropanol (4 mL 1N HCl for 96 mL alcohol) were added and the resulting mixture was mixed vigorously to dissolve purple crystals. Absorbance was determined at 550-570 nm on an ELISA plate reader within 0.5-2 hours. […] To obtain the LD50 values for each compound, the concentration at which the absorbance is haft of that for the untreated cells was determined.

p24 = p24 core antigen ELISA of virus from treated COS-7 cells
Description: Drug treatment. The compounds were added 48 hours post-transfection, at the peak of virus production, and the incubation was restricted to a 4-hour period. […] Culture media were adjusted to the desired concentration of these compounds just prior to the addition of the media to cells. To avoid precipitation, the compounds were aliquoted first to a tube in sufficient DMSO to yield a 1.0% final concentration, and subsequently the culture medium was added quickly and vortexed. The culture medium was collected after 4 hours of incubation of the cells with each of the compounds. This culture supernatant is the source of virus for measurement of infectivity as well as levels of p24 and other capsid proteins.
p24 Core antigen ELISA assay. An ELISA kit purchased from NEN/Dupont was used to determine the amount of p24 present in culture media or virus preparations. This capture assay uses a monoclonal antibody that preferentially binds p24 while it reacts with larger capsid protein precursors to a very limited extent. The assay was carded out using the manufacturer's indications. Samples were pre-treated with 1% Triton to inactivate the virus.
Virus isolation by ultracentrifugation. The culture medium was filtered through a 0.45 μm syringe filter and was then centrifuged to remove any precipitate. The medium was then spun through a cushion of 20% sucrose in PBS in an SW41 Beckman rotor for 1.5 hours at 35K and 4° C. The pelleted material was collected.
Following incubation of virus-producing cells with various concentrations of the test compounds, the virus particles were isolated by ultracentrifugation. These particles were disrupted using Triton X-100 and the amount of p24 capsid protein was quantitated by ELISA.

HIV-1 protease [2] = target: T1, HIV-1 protease (Human immunodeficiency virus type 1 group M subtype B, UniProt P03369); experiment: biochemical
in vitro [3] = conditions: african green monkey, cos-7 cells
Description: (§1) MTT cell viability assay. This is a quantitative colorimetric assay for mammalian cell survival and proliferation. Cells were seeded in 96 well plates and grown to near 50% confluency. A serial dilution (1 to 500 μM) of each compound was then prepared in culture media and added (250 μL/well) in duplicate. All culture media was adjusted to a final concentration of 1.0% DMSO (volume basis). The cells were allowed to grow for either 4 hours or 24 hours. The culture media were then removed, and the cells were washed with phosphate buffered saline (PBS) before 50 μL of MTT solution (1 mg/mL in PBS) was added. After incubating for 4 hours at 37° C., the reaction was quenched by adding 160 μL of acidified isopropanol and mixing to dissolve purple crystals. The absorbance was determined within 30 minutes at 570 nm on an ELISA plate reader.
(§2) The cytotoxic effect of the inhibitors was determined using the MTT stain viability assay.

HIV-2 protease = target: T2, HIV-2 protease (Human immunodeficiency virus type 2 subtype A, UniProt P04584); experiment: biochemical
T2 construct: the coding region of the 99-amino acid protease; made in house; host or cells: Saccharomyces cerevisiae strain AB110, plasmid pHIV2PR115

HIV = experiment: HeLa/T4 infectivity assay with replication-defective virions from transfected COS-7 cells; type: cell-based; conditions: for colony reduction (summary in words): Table 5 concentrations
HIV-2 PR [4] = target: T3, HIV-2 PR (Human immunodeficiency virus type 2 subtype A, UniProt P04584); experiment: biochemical; type: biochemical; conditions: for KI (inactivation): inhibitor concentration resulting in half-maximal inactivation, pH 8.0, 25° C., read-out: kinact (μM) HIV-2; for kinact: pH 8, maximum inactivation rate, read-out: Vinact (min^-1 × 10^3) HIV-2 (converted)
T3 construct: HIV-2 PR (at a final concentration of 30 μg/mL); made in house

HIV-2 PR [5] = target: T3, HIV-2 PR; experiment: Protection experiment, incorporation of radio-labelled UCSF84; type: binding
HIV-1 PR C95M = HIV-1 PR C95M (Human immunodeficiency virus type 1 group M subtype B, UniProt P03369, C585M); experiment: as above; type: binding; conditions: for incorporation after preincubation of the enzyme: preincubation 10 μM, then radio-labelled UCSF84
HIV-1 PR [6] = target: T4, HIV-1 PR (Human immunodeficiency virus type 1 group M subtype B, UniProt P03369); experiment: biochemical; type: binding; conditions: preincubation 10 μM one hour, then radio-labelled UCSF84 200 μM
HIV protease = HIV protease (Human immunodeficiency virus type 1 group M subtype B, UniProt P04585); conditions: cited from earlier work
HIV-1 protease [7] = target: T1, HIV-1 protease; type: cell-based; parameters: fused to amino acids 5 (Asp) to 179 (Trp) of the pol region; human superoxide dismutase (hSOD, 153 residues) (N); Phe-Arg-Glu are pol residues) (N); additional Pro residue of pol (C); expressed in transfected cells; host or cells: E. coli strain D1210 harboring plasmid pSOD/PR179
HIV-1 PR [8] = target: T4, HIV-1 PR; conditions: pH 8
HIV-1 PR [9] = target: T4, HIV-1 PR; conditions: pH 8; remark: listed apart in the source
Description: Once full inhibition was achieved, the enzyme was isolated by reverse phase HPLC on a C3 -Zorbax Protein Plus column (4.6 mm×25 cm), using a 100-minute linear gradient from 5 to 65% acetonitrile in 0.1% TFA. The flow rate was 1 mL/min and the eluent was monitored at 220 nm. The two major components of the isolated sample were concentrated under vacuum, dissolved in a small volume of 50% acetonitrile and 1% acetic acid, and their molecular weights determined by electrospray mass spectrometry. The spectra were recorded on a VG EIectrospray. Mass Spectrometer Model Bio-Q.

[10] = MTT cell viability assay (Tables 5 and 7); conditions: african green monkey, cos-7 cells
Description: as §1, §2

[11] = read-out: kinact (μM) HIV-1; inhibitor concentration resulting in half-maximal inactivation; pH 8.0, 25° C.
[12] = Human immunodeficiency virus 1, COS-7, 4 h, read-out: Reduction of p24 IC50 (μM)
[13] = HIV-1 Protease IC50 (μM) 1M NaCl, 1M NaCl
[14] = Human immunodeficiency virus 1, COS-7, 4 h, read-out: % p24 Relative to Untreated
[15] = HIV-1 Protease IC50 (μM) 1M NaCl

T2 sequence (P04584 514-612 limits assumed): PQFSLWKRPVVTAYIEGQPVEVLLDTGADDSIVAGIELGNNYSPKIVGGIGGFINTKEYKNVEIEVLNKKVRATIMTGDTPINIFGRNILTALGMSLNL
T3 sequence (P04584 514-612 limits assumed): as above

Compound	KI (inactivation) (HIV-1 PR Q7K; [11]) [µM]	CC50 at 6 h (in vitro [1]) [µM]	CC50 at 4 h (in vitro [3]) [µM]	CC50 at 24 h (in vitro [3]) [µM]	HIV-1 Protease Therapeutic Index (LD50 /IC50) (HIV-1 protease [2])	IC50 (HIV-1 protease [2]; [15]) [µM]	solubility (physchem) [µM]	KI (inactivation) (HIV-2 PR [4]) [µM]	kinact (HIV-2 PR [4]) [min⁻¹]	also measured
OC1(C#CC2(c3ccccc3)CO2)CCN(Cc2ccccc2)CC1 (stereo not drawn) [UCSF70, N-benzyl-4-hydroxy-4-(3,4-epoxy-3-phenyl-1-butyny)piperidine]	407 ± 61.6	120	70	35						solubility (Solubility): > 500 µM; IC50 (p24; [12]): 25 µM; IC50 (HIV-1 protease [2]; [13]): 750 µM
C=C(CCC[N+]1([O-])CCC(O)(c2ccc(Cl)cc2)CC1)c1ccc(F)cc1 (stereo not drawn) [UCSF42]		160	300		5.3	30	500 (≈ 195 µg/mL)			IC50 (HIV-2 protease; 1M NaCl): 67 µM; inhibition at 75 µM (HIV; Human immunodeficiency virus 1, HeLaT4, 75 μM, 4-hour treatment, read-out: Hela/T4 Infection % Colony Reduction): 92%; colony reduction (summary in words) (HIV): significant colony reduction; activity at 75 µM (p24; [14]): 45%; inhibition of HIV-1 protease compared with other compounds (HIV-1 protease [2]): better inhibitor than haloperidol but not as potent an inhibitor as UCSF8; cytotoxicity at 4 h, 75 µM (in vitro [3]): 0%
O=C(/C=C/C[N+]1([O-])CCC(O)(c2ccc(Cl)cc2)CC1)c1ccc(F)cc1 (stereo not drawn) [UCSF115]	144 ± 14.8	250	250	200		30	250 (≈ 97.5 µg/mL)	116 ± 4.7	0.0052	IC50 (p24; [12]): 75 µM
O=[N+]([O-])c1ccc(OCC2CO2)cc1 (stereo not drawn) [EPNP, 1,2-epoxy-3-(p-nitrophenoxy)-propane, reference compound]								6700 ± 600	0.0482	radioactivity incorporation after preincubation (HIV-2 PR [5]): almost complete elimination of radioactivity incorporation; KI (inactivation) (HIV-1 PR Q7K; inhibitor concentration resulting in half-maximal inactivation; pH 8.0, 25° C.; read-out: kinact (μM) HIV-1): 9900 ± 1000 µM; incorporation after preincubation of the enzyme (HIV-1 PR C95M): sharply reduced; inhibition at 10 µM (HIV-1 PR [6]; 1 h, pH 8, read-out: blocking of radioactivity incorporation to HIV-1 PR): ~50%
CC(C)CC(=O)N[C@H](C(=O)N[C@H](C(=O)N[C@@H](CC(C)C)[C@@H](O)CC(=O)N[C@@H](C)C(=O)N[C@@H](CC(C)C)[C@@H](O)CC(=O)O)C(C)C)C(C)C [pepstatin A] (Isovaleryl-VV[Sta]A[Sta]-OH)										inhibition of protein processing by HIV protease (HIV protease): partially inhibit protein processing
OC(CCCN1CCC(O)(c2ccc(Cl)cc2)CC1)c1ccc(F)cc1 (stereo not drawn) [UCSF2]					0.5	200	> 250			IC50 (HIV-2 protease): 700 µM; inhibition of protein processing (intermediate bands) (HIV-1 protease [7]): An increase in the band representing an intermediate in the vicinity of the 29-kDa marker
Val-Ser-Asn-Ler-.psi.[CH(OH)CH2 ]-Val-Ile-Val (VSNLVIV; numbers in words are those of the source; also: Leu-Val peptide bond replaced by hydroxyethylene isostere ψ[CH(OH)CH2]) [Compound U-85548]										incorporation after preincubation of the enzyme (HIV-1 PR C95M): sharply reduced; blocking of radioactivity incorporation to HIV-1 PR (HIV-1 PR [6]): approximately 65%
OC1(c2ccc(Cl)cc2)CCN(CC#CC2(c3ccccc3)CO2)CC1 (stereo not drawn) [UCSF84]	521 ± 56.6	100 to 165	120	50		150	> 250	283 ± 9.3	0.0146	incorporation of radioactivity relative to HIV-1 PR (HIV-1 PR C95M; 200 μM, one hour, 25° C.): approximately 50%; reversibility of inhibition after dilution and buffer exchange (HIV-1 PR [8]): irreversible modification of the enzyme; IC50 (p24; read-out: Reduction of p24 IC50, 4 hours incubation, ELISA): 50 µM
OC1(CCCCc2ccccc2)CCC(O)(c2ccccc2)CC1 (stereo not drawn) [UCSF29, 4-(4'-phenylbutyl)-1-phenyl-1,4-cyclohexanediol]		160	180							solubility (Solubility): > 250 µM; inhibition at 250 µM (HIV; Human immunodeficiency virus 1, HeLaT4, 250 μM, 4-hour treatment, read-out: Hela/T4 Infection % Colony Reduction): 100%; colony reduction (summary in words) (HIV): significant colony reduction; activity at 250 µM (p24; [14]): 35%; IC50 (HIV-1 protease [2]; 0.2M NaCl, read-out: IC50): 1400 µM; IC50 (HIV-1 protease [2]; 0.5M NaCl, read-out: IC50): 625 µM; IC50 (HIV-1 protease [2]; 1.0M NaCl, read-out: IC50): 128 µM; inhibition of HIV-1 protease compared with other compounds (HIV-1 protease [2]; FIGS. 5-8, three salt concentrations): not unlike that for haloperidol; IC50 (HIV-1 protease [2]; [13]): 128 µM; HIV-1 Protease Therapeutic Index (LD50 /IC50) (HIV-1 protease [2]; LD50/IC50): 1.2; cytotoxicity at 4 h, 250 µM (in vitro [3]): 80%
O=C(C#CCN1CCC(O)(c2ccc(Cl)cc2)CC1)c1cccc(-c2ccccc2)c1 [UCSF142, 4-(4'-(4"-chlorophenyl)-4'-hydroxypiperidinyl)-1-m-biphenylbut-2-yn-1-one]	10.7 ± 1.3	35	35	< 5	0.56	63	100 (≈ 43 µg/mL)	8.6 ± 1	0.0097	molecules of inhibitor bound per HIV-1 protease (molecular weight 11,649) (HIV-1 PR [9]): two molecules
C/C=C/C/C=C/CCC(=O)[C@H]1O[C@H]1C(N)=O [cerulenin, reference compound]			900							cytotoxicity at 4 h, 100 µM [10]: 0%; inhibition at 100 µM (HIV; Human immunodeficiency virus 1, HeLaT4, 100 μM, 4-hour treatment, read-out: Hela/T4 Infection % Colony Reduction): 77%; inhibition of protein processing (35-kDa and 38-kDa intermediates) (HIV-1 protease [7]; 500 μM, 15 minutes (FIG. 11b)): no detectable inhibition; inhibition of protein processing (intermediate bands) (HIV-1 protease [7]; 500 μM, 120 minutes (FIG. 11c)): protein processing inhibition; activity at 100 µM (p24; [14]): 36%
OC1(c2ccc(Cl)cc2)CCN(CCCC2(c3ccc(F)cc3)SCCS2)CC1 [UCSF8, (1,2-ethanethioacetal)-4-(4-(p-chlorophenyl)-4-hydroxypiperidinyl]-4'-fluorobutyrophenone]		60	45		4	15	> 250			IC50 (HIV-2 protease; 1M NaCl): 100 µM; inhibition at 20 µM (HIV; Human immunodeficiency virus 1, HeLaT4, 20 μM, 4-hour treatment, read-out: Hela/T4 Infection % Colony Reduction): 85%; colony reduction (summary in words) (HIV): significant colony reduction; activity at 20 µM (p24; [14]): 62%; inhibition of HIV-1 protease compared with other compounds (HIV-1 protease [2]): 50% inhibition is achieved at a much lower inhibitor concentration relative to haloperidol; IC50 (HIV-1 protease [2]; IC50): 73 µM and 32 µM and 15 µM; cytotoxicity at 4 h, 20 µM (in vitro [3]): 55%
